Here are results for one molecule from patent publication US20060013871A1 (priority 2003, published 2006).

This series in a line: Particle size analysis in water suspension, Beckman LS230. It is filed as physicochemical. The conditions noted are these: feedstock of Example 5, water suspension, Beckman Coulter LS230. The protocol:
The vessel was charged with 405 g of CO2. The agitator rpm was 1,776. The mixing process was run for 1 hr. The final temperature and pressure were 28° C. and 1,434 psig, respectively.
Particle size analysis was done in water suspension using Beckman LS230, however it is known that in an aqueous medium Poloxamer is likely to dissolve.

Regarding `CC(C)Cc1ccc(C(C)C(=O)O)cc1` (stereo not drawn) [Ibuprofen], the “d16 particle size of feedstock” value worked out at 21.8 micron, the “d50 particle size of feedstock” value stood at 41.21 microns and the “d84 particle size of feedstock” value stood at 71.05 microns.
